The results in this text go back to paper PMC7763113, “Design, synthesis, cytotoxic activity, and apoptosis inducing effects of 4- and N-substituted benzoyltaurinamide derivatives” (Turkish Journal of Chemistry, 2020).

“Also recorded” adds a separate entry of the source.

Data set [1] concerns SH-SY5Y human neuroblastoma cells. In words: MTT cytotoxicity assay, SH-SY5Y. The format is cell-based. The conditions noted are these: Homo sapiens, SH-SY5Y, mean ± SD, read-out: Cytotoxic activity IC50, SH-SY5Y. From the text:
(§1) The human neuroblastoma cells (SH-SY5Y), triple-negative breast cancer cells (MDA-MB-231), and human pancreatic cancer cells (Panc1) used in this study were purchased from the American Type Culture Collection (ATCC). The cells were suspended in complete Dulbecco’s modified Eagle medium (DMEM) (Life Technologies, Gibco BRL, Grand Island, NY) supplemented with 10% fetal bovine serum (FBS, Hyclone), 1% penicillin and streptomycin (100 U/mL, Invitrogen) and plated in cell culture dishes. The cultures were maintained at 37 °C in a 5% CO2 95% humidified atmosphere. After reaching 85% confluence, the cells were transferred to 96-well plates or culture dishes. For MTT assays, the cells were seeded into 96-well cell culture plates at a density of 2 × 10^3 cells per well and allowed to adhere for 24 h. The cells were treated with fresh medium containing experimental compounds (100, 10, 1 µM) and incubated in a 5% CO2 incubator for 48 and 72 h. For protein analysis, the cells were seeded into 6-well cell culture plates at a density of 0.5 x 10^6 cells/well and allowed to adhere to the surface for 24 h. The stock solutions of the test compounds (5 mM) were prepared in sterile DMSO, and these stocks were then appropriately diluted with the complete culture medium. DMSO levels were maintained below 1% in the test concentrations.
(§2) Briefly, following exposures, MTT (at a final concentration of 0.5 mg/mL) was added to each well, and plates were incubated for 2 h at 37 °C in a 5% CO2 humidified incubator. The reaction mixture was removed, and DMSO was added to each well. The plates were shaken at room temperature, and the absorbance was measured at 570 nm and 630 nm using a microplate reader (VersaMax, Molecular Devices, USA). Percent survival was plotted relative to vehicle control cells, which were normalized to 100% survival.
For orientation: Tetrazolium dyes change colour on reduction, which living cells bring about.

Data set [2] concerns PANC-1 cells. In words: Annexin V-FITC/PI flow cytometry, PANC-1. The format is cell-based, human. The conditions noted are these: at cytotoxic concentrations, 48 h. The procedure: (§3) The cells were harvested after 48 h, washed with PBS, and analyzed using the Annexin V FITC/PI Apoptosis Detection kit (BioVision, Mountain View, CA, USA) with a benchtop flow cytometer (Accuri C6 flow cytometry, Becton Dickinson).

Data set [3] has as its system SH-SY5Y cells. In words: Annexin V-FITC/PI flow cytometry, SH-SY5Y. The format is cell-based, human. The conditions noted are these: 48 h, control 3.2%. The procedure: as §3
Data set [4] deals with PANC-1 human pancreatic cancer cells. In words: MTT cytotoxicity assay, PANC-1. It counts as cell-based. The conditions noted are these: Homo sapiens, PANC-1, MTT, mean ± SD, read-out: Cytotoxic activity IC50, PANC-1.
Excerpt: as §1, §2

Data set [5] relates to MDA-MB-231 triple-negative breast cancer cells. In words: MTT cytotoxicity assay, MDA-MB-231. The conditions noted are these: Homo sapiens, MDA-MB-231, MTT, mean ± SD, read-out: Cytotoxic activity IC50, MDA-MB-231. The format is cell-based, human.
Excerpt: as §1, §2

The test system of data set [6] is BAX, Bcl-2, Bcl-xL, caspase-3 and caspase-9 expression in MDA-MB-231 cell line. As to the kind of experiment: Western blot of apoptotic proteins, MDA-MB-231. It counts as cell-based, human. The conditions noted are these: for BAX protein levels: after only 24 h. The protocol:
(§4) The cells (0.5 × 10^6 cell/well) were seeded into 6 well plates and incubated for 24 h, and then treated with selected experimental compounds for 24 h and 48 h. Following incubation, the cells were washed with ice-cold 1X PBS and lysed in 1X cell lysis buffer. These lysates were quantified using the BCA protein assay. Then, the cell lysates were analyzed by western blot.
(§5) On a 12% (w/v) tris-glycine denaturing gel, 20 μg protein was separated by electrophoresis, and then transferred to a PVDF membrane. After blocking, the membrane was incubated with primary antibodies, anti-Bax rabbit monoclonal antibody, anti-Bcl-2 rabbit monoclonal antibody, anti-Bcl-xL rabbit monoclonal antibody, anti-caspase-3 rabbit monoclonal antibody, and anti-caspase-9 rabbit monoclonal antibody (1:1000, Cell Signaling Technology) at 4 °C overnight. Following the incubation, the membrane was incubated with an anti-β-actin mouse monoclonal antibody (1:1000, Cell Signaling Technology) at room temperature for 1 h. After washing, the membrane was incubated with peroxidase-conjugated secondary antibodies for 1 h to visualize labeled proteins by enhanced chemiluminescence.

A short description of data set [7]: MTT cytotoxicity assay, MCF-10a (nontumorigenic). The format is cell-based. The conditions noted are these: MCF-10a nontumorigenic mammary cells, MCF-10a nontumorigenic human mammary cell line, mean ± SD, read-out: Cytotoxic activity IC50, MCF-10a.
Excerpt: [The source words this procedure for another cell line and reports this cell line under the same test.] as §1, §2

In data set [8] the test system is MDA-MB-231 cells. In words: Annexin V-FITC/PI flow cytometry, MDA-MB-231. The format is cell-based, human. The conditions noted are these: 48 h, control 1.2%. The protocol: as §3
In general terms: A flow cytometer gives signals particle by particle.

Data set [9] has as its system BAX, Bcl-2, Bcl-xL, caspase-3 and caspase-9 expression in PANC-1 cell line. In words: Western blot of apoptotic proteins, PANC-1. The format is cell-based, human. The conditions noted are these: at IC50, 24 and 48 h, vs control. The procedure: as §4, §5
(In western blotting, separated proteins are transferred to a membrane and probed.)

For orientation: IC50 means the point on the concentration scale where inhibition reaches its midpoint. In general, melting point refers to the temperature of the solid-liquid transition. `COc1ccc(NS(=O)(=O)CCNC(=O)c2ccc(Cl)cc2)cc1` [Compound 14, 4-Chloro-N-(2-(N-(4-methoxyphenyl)sulfamoyl)ethyl)benzamide] yielded a melting point of 160 to 161 °C. Also, the half-inhibitory concentration (IC50) in [1] is 26 ± 1.4 µM. Besides, the “apoptotic cell ratios (Annexin V-FITC/PI result)” value in data set [2] is listed as “no significant changes; also recorded: negative”. For the same compound, the apoptotic cell ratios in data set [3] worked out at 3.8%. Besides, the IC50 in [4] worked out at 22.5 ± 1.7 µM. Besides, the IC50 in data set [5] came out at 19.9 ± 1.7 µM. Besides, in data set [6] (Western blot), the BAX protein levels result was “significantly increased”. In addition, the “increase of caspase-9 activity” value in data set [6] (after only 48 h, relative to control) is reported as 1.18 fold. Besides, the concentration for half-maximal inhibition (IC50) in [7] stood at 109 ± 1.2 µM. Besides, the “percent of the positive apoptotic cells” value in [8] stood at 1.6%. In addition, in [9], the BAX expression result is “increased”, the Bcl-2 expression result was “decrease”, the Bcl-xL expression entry is reported as “decrease” and the caspase-3 expression entry is on record as “increased”. Besides, the caspase-9 expression result in data set [9] is recorded as “increased”.
On to `COc1ccc(NS(=O)(=O)CCNC(=O)c2ccc(OC)cc2)cc1` [Compound 15, 4-Methoxy-N-(2-(N-(4-methoxyphenyl)sulfamoyl)ethyl)benzamide], for which the melting point is 112 to 113 °C. Moreover, the IC50 in data set [1] stood at 39.9 ± 1.6 µM. Moreover, the “apoptotic cell ratios (Annexin V-FITC/PI result)” value in [2] is “no significant changes; also recorded: negative”. In addition, in [3], the apoptotic cell ratios was 3.9%. Moreover, the IC50 in [4] was 18.1 ± 1.6 µM. Moreover, in [5], the half-maximal inhibitory concentration (IC50) is 33.9 ± 1.8 µM. Also, in [6] (Western blot), the “caspase-3 expression (in words)” value is “increased”, the “caspase-9 expression levels (in words)” value was “did not exert any effect” and the BAX protein levels entry is listed as “significantly increased”. The “decrease of Bcl-2 expression” value in data set [6] (after 24 and 48 h, compared to control) was 2- to 3 fold. Moreover, in data set [7], the half-inhibitory concentration (IC50) came out at 118 ± 1.4 µM. Besides, in data set [8], the “percent of the positive apoptotic cells” value was found to be 1.4%. For the same compound, in [9], the Bcl-xL expression result is “opposite effect”, the caspase-3 expression entry is recorded as “opposite effect” and the caspase-9 expression result is recorded as “opposite effect”.
